According to publication PMC10008561 (Nature Communications, 2023):
Where “and” joins values, the source holds several entries; their conditions need not be identical. Identical values can stand only once.

Assays:
Assay in all cases: cell-based
[1] = biological target: T1, human KOR (Gz) (Homo sapiens, UniProt P41145, N141A)
T1 construct: expressed in transfected cells; host or cells: HEK293T

[2] = biological target: T2, human KOR (Gz) (Homo sapiens, UniProt P41145, R271A)
T2 construct: expressed in transfected cells; host or cells: HEK293T
T2 sequence (P41145 whole entry R271A): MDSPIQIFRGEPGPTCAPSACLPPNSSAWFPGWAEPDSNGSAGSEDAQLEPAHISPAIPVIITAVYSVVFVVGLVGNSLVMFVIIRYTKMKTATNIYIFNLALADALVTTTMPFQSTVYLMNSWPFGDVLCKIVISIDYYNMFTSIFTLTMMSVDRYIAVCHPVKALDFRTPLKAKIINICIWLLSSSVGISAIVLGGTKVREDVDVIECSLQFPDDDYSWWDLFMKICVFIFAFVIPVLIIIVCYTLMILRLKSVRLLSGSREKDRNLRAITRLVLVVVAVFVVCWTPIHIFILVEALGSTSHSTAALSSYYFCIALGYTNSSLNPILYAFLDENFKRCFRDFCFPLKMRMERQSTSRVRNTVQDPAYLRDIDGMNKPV

[3] = biological target: T3, human KOR (Gz) (Homo sapiens, UniProt P41145, Y139L)
T3 construct: expressed in transfected cells; host or cells: HEK293T
T3 sequence (P41145 whole entry Y139L): as the sequence (P41145 whole entry R271A) above, with Y139L, A271R counted along it

[4] = biological target: T4, human KOR (Gz) (Homo sapiens, UniProt P41145, T94V)
T4 construct: expressed in transfected cells; host or cells: HEK293T
T4 sequence (P41145 whole entry T94V): as the sequence (P41145 whole entry R271A) above, with T94V, A271R counted along it

[5] = biological target: T5, human KOR (Gz) (Homo sapiens, UniProt P41145, L253A); settings: HEK-293T
T5 construct: expressed in transfected cells; host or cells: HEK293T
T5 sequence (P41145 whole entry L253A): as the sequence (P41145 whole entry R271A) above, with L253A, A271R counted along it

[6] = biological target: T6, human KOR (Gz) (Homo sapiens, UniProt P41145, E297A)
T6 construct: expressed in transfected cells; host or cells: HEK293T
T6 sequence (P41145 whole entry E297A): as the sequence (P41145 whole entry R271A) above, with A271R, E297A counted along it

[7] = biological target: T7, human KOR (Gz) (Homo sapiens, UniProt P41145, D105A)
T7 construct: expressed in transfected cells; host or cells: HEK293T
T7 sequence (P41145 whole entry D105A): as the sequence (P41145 whole entry R271A) above, with D105A, A271R counted along it

[8] = biological target: T8, human KOR (Gz) (Homo sapiens, UniProt P41145, F283A)
T8 construct: expressed in transfected cells; host or cells: HEK293T
T8 sequence (P41145 whole entry F283A): as the sequence (P41145 whole entry R271A) above, with A271R, F283A counted along it

[9] = biological target: T9, human KOR (Gz) (Homo sapiens, UniProt P41145, K200A)
T9 construct: expressed in transfected cells; host or cells: HEK293T
T9 sequence (P41145 whole entry K200A): as the sequence (P41145 whole entry R271A) above, with K200A, A271R counted along it

[10] = biological target: T10, human KOR (Gz) (Homo sapiens, UniProt P41145)
T10 construct: expressed in transfected cells; host or cells: HEK293T
T10 sequence (P41145 whole entry): as the sequence (P41145 whole entry R271A) above, with A271R counted along it

[11] = biological target: T11, human KOR (Gz) (Homo sapiens, UniProt P41145, Q115N)
T11 construct: expressed in transfected cells; host or cells: HEK293T
T11 sequence (P41145 whole entry Q115N): as the sequence (P41145 whole entry R271A) above, with Q115N, A271R counted along it

[12] = biological target: T12, human KOR (β-arrestin 2) (Homo sapiens, UniProt P41145, T94V); settings: HEK-293T
T12 construct: expressed in transfected cells; host or cells: HEK293T
T12 sequence (P41145 whole entry T94V): as the sequence (P41145 whole entry R271A) above, with T94V, A271R counted along it

[13] = biological target: T13, human KOR (β-arrestin 2) (Homo sapiens, UniProt P41145, K200A); settings: HEK-293T
T13 construct: expressed in transfected cells; host or cells: HEK293T
T13 sequence (P41145 whole entry K200A): as the sequence (P41145 whole entry R271A) above, with K200A, A271R counted along it

[14] = biological target: T14, human KOR (β-arrestin 2) (Homo sapiens, UniProt P41145, R271A); settings: HEK-293T
T14 construct: expressed in transfected cells; host or cells: HEK293T
T14 sequence (P41145 whole entry R271A): as the sequence (P41145 whole entry R271A) above

[15] = biological target: T15, human KOR (β-arrestin 2) (Homo sapiens, UniProt P41145, D334A); settings: HEK-293T
T15 construct: expressed in transfected cells; host or cells: HEK293T
T15 sequence (P41145 whole entry D334A): as the sequence (P41145 whole entry R271A) above, with A271R, D334A counted along it

[16] = biological target: T16, human KOR (β-arrestin 2) (Homo sapiens, UniProt P41145, G319L); settings: HEK-293T
T16 construct: expressed in transfected cells; host or cells: HEK293T
T16 sequence (P41145 whole entry G319L): as the sequence (P41145 whole entry R271A) above, with A271R, G319L counted along it

[17] = biological target: T17, human KOR (β-arrestin 2) (Homo sapiens, UniProt P41145, Q115N); settings: HEK-293T
T17 construct: expressed in transfected cells; host or cells: HEK293T
T17 sequence (P41145 whole entry Q115N): as the sequence (P41145 whole entry R271A) above, with Q115N, A271R counted along it

[18] = biological target: T18, human KOR (β-arrestin 2) (Homo sapiens, UniProt P41145)
T18 construct: expressed in transfected cells; host or cells: HEK293T
T18 sequence (P41145 whole entry): as the sequence (P41145 whole entry R271A) above, with A271R counted along it

[19] = biological target: T19, human KOR (β-arrestin 2) (Homo sapiens, UniProt P41145, D266A); settings: HEK-293T
T19 construct: expressed in transfected cells; host or cells: HEK293T
T19 sequence (P41145 whole entry D266A): as the sequence (P41145 whole entry R271A) above, with D266A, A271R counted along it

[20] = biological target: T20, human KOR (β-arrestin 2) (Homo sapiens, UniProt P41145, R170A); settings: HEK-293T
T20 construct: expressed in transfected cells; host or cells: HEK293T
T20 sequence (P41145 whole entry R170A): as the sequence (P41145 whole entry R271A) above, with R170A, A271R counted along it

[21] = biological target: T21, human KOR (β-arrestin 2) (Homo sapiens, UniProt P41145, F283A); settings: HEK-293T
T21 construct: expressed in transfected cells; host or cells: HEK293T
T21 sequence (P41145 whole entry F283A): as the sequence (P41145 whole entry R271A) above, with A271R, F283A counted along it

[22] = biological target: T22, human KOR (β-arrestin 2) (Homo sapiens, UniProt P41145, E297A); settings: HEK-293T
T22 construct: expressed in transfected cells; host or cells: HEK293T
T22 sequence (P41145 whole entry E297A): as the sequence (P41145 whole entry R271A) above, with A271R, E297A counted along it

[23] = biological target: T23, human KOR (β-arrestin 2) (Homo sapiens, UniProt P41145, N141A); settings: HEK-293T
T23 construct: expressed in transfected cells; host or cells: HEK293T
T23 sequence (P41145 whole entry N141A): as the sequence (P41145 whole entry R271A) above, with N141A, A271R counted along it

[24] = biological target: T24, human KOR (β-arrestin 2) (Homo sapiens, UniProt P41145, R257A); settings: HEK-293T
T24 construct: expressed in transfected cells; host or cells: HEK293T
T24 sequence (P41145 whole entry R257A): as the sequence (P41145 whole entry R271A) above, with R257A, A271R counted along it

[25] = biological target: T25, human KOR (β-arrestin 2) (Homo sapiens, UniProt P41145, Y320L); settings: HEK-293T
T25 construct: expressed in transfected cells; host or cells: HEK293T
T25 sequence (P41145 whole entry Y320L): as the sequence (P41145 whole entry R271A) above, with A271R, Y320L counted along it

[26] = biological target: T26, human KOR (β-arrestin 2) (Homo sapiens, UniProt P41145, L253A); settings: HEK-293T
T26 construct: expressed in transfected cells; host or cells: HEK293T
T26 sequence (P41145 whole entry L253A): as the sequence (P41145 whole entry R271A) above, with L253A, A271R counted along it

[27] = biological target: T27, human KOR (β-arrestin 2) (Homo sapiens, UniProt P41145, F114L); settings: HEK-293T
T27 construct: expressed in transfected cells; host or cells: HEK293T
T27 sequence (P41145 whole entry F114L): as the sequence (P41145 whole entry R271A) above, with F114L, A271R counted along it

[28] = biological target: T28, human KOR (β-arrestin 2) (Homo sapiens, UniProt P41145, N322A); settings: HEK-293T
T28 construct: expressed in transfected cells; host or cells: HEK293T
T28 sequence (P41145 whole entry N322A): as the sequence (P41145 whole entry R271A) above, with A271R, N322A counted along it

[29] = biological target: T29, human KOR (β-arrestin 2) (Homo sapiens, UniProt P41145, K227A); settings: HEK-293T
T29 construct: expressed in transfected cells; host or cells: HEK293T
T29 sequence (P41145 whole entry K227A): as the sequence (P41145 whole entry R271A) above, with K227A, A271R counted along it

[30] = biological target: T30, human KOR (β-arrestin 2) (Homo sapiens, UniProt P41145, R274A); settings: HEK-293T
T30 construct: expressed in transfected cells; host or cells: HEK293T
T30 sequence (P41145 whole entry R274A): as the sequence (P41145 whole entry R271A) above, with A271R, R274A counted along it

[31] = biological target: T31, human KOR (β-arrestin 2) (Homo sapiens, UniProt P41145, D155A); settings: HEK-293T
T31 construct: expressed in transfected cells; host or cells: HEK293T
T31 sequence (P41145 whole entry D155A): as the sequence (P41145 whole entry R271A) above, with D155A, A271R counted along it

[32] = biological target: T32, human KOR (β-arrestin 2) (Homo sapiens, UniProt P41145, Y139L); settings: HEK-293T
T32 construct: expressed in transfected cells; host or cells: HEK293T
T32 sequence (P41145 whole entry Y139L): as the sequence (P41145 whole entry R271A) above, with Y139L, A271R counted along it

[33] = biological target: T33, human KOR (Homo sapiens, UniProt P41145, Q115N); settings: HTLA
T33 construct: expressed in transfected cells; host or cells: HEK 293T (ATCC, CRL-3216)
T33 sequence (P41145 whole entry Q115N): as the sequence (P41145 whole entry R271A) above, with Q115N, A271R counted along it

[34] = biological target: T34, human KOR (Homo sapiens, UniProt P41145, W124L); settings: HTLA
T34 construct: expressed in transfected cells; host or cells: HEK 293T (ATCC, CRL-3216)
T34 sequence (P41145 whole entry W124L): as the sequence (P41145 whole entry R271A) above, with W124L, A271R counted along it

[35] = biological target: T35, human KOR (Homo sapiens, UniProt P41145, K227A); settings: HTLA
T35 construct: expressed in transfected cells; host or cells: HEK 293T (ATCC, CRL-3216)
T35 sequence (P41145 whole entry K227A): as the sequence (P41145 whole entry R271A) above, with K227A, A271R counted along it

[36] = HEK-293T, read-out: Gz (Figure 5A concentration-response, replicate values)

T1 sequence (P41145 whole entry N141A): as the sequence (P41145 whole entry R271A) above, with N141A, A271R counted along it

In the case of `CN(C(=O)/C=C/c1ccoc1)[C@@H]1CC[C@@]2(O)[C@H]3Cc4ccc(O)c5c4[C@@]2(CCN3CC2CC2)[C@H]1O5` [Nalfurafine, nalfurafine], the “FC vs wild type” value [1] is reported as 93, the Emax ([1]; HEK-293T) is reported as 98.3% and the “FC vs wild type” value [2] is reported as 398. The Emax ([2]; HEK-293T) was 110%, the “FC vs wild type” value [3] was 4 and the Emax ([3]; HEK-293T) was 103%. For the same molecule, the “FC vs wild type” value [4] was 6, the Emax [5] was 112% and the “FC vs wild type” value [6] was 1. For the same molecule, the Emax ([6]; HEK-293T) was 103%, the “FC vs wild type” value [7] was 479 and the Emax ([7]; HEK-293T) was 103%. For the same molecule, the “FC vs wild type” value [8] was 44, the Emax ([8]; HEK-293T) was 106% and the “FC vs wild type” value [9] was 9. For the same molecule, the Emax ([9]; HEK-293T) was 108%, the Emax% [10] was 96.48% and the “FC vs wild type” value [10] was 1. The Emax ([10]; HEK-293T) was 96.7%, the activation at 10 pM [10, 36] was 45.5% and the activation at 0.1 µM [10, 36] was 99.7%. For the same molecule, the activation at 1 µM [10, 36] was 111%, the activation at 10 µM [10, 36] was 97.8% and the “FC vs wild type” value [11] was 39. For the same molecule, the Emax ([11]; HEK-293T) was 78.7%, the Emax [12] was 87.5% and the Emax [13] was 83.2%. The Emax [14] was 101 ± 8.2%, the Emax [15] was 78% and the Emax [16] was 71%. The Emax [17] was 67%, the Emax% [18] was 80% and the Emax ([18]; HEK-293T) was 100 ± 4%. It also gave an Emax [19] of 101%, an Emax [20] of 100 ± 8.6% and an Emax [21] of 100%. It also gave an Emax [22] of 101%, an Emax [23] of 90.6% and an Emax [24] of 103%. For the same molecule, the Emax [25] was 65.9%, the Emax [26] was 107% and the Emax [27] was 48.7%. The Emax [28] was 87.1%, the Emax [29] was 97.5% and the Emax [30] was 83.3%. For the same molecule, the Emax [31] was 90.2%, the Emax [32] was 113% and the Emax [33] was 98 ± 3%. The Emax [34] was 26 ± 4%, the activation at 1 µM ([34]; read-out: Tango response) was 19.6% and the activation at […] ([34]; read-out: Tango response) was 21% and 25.5%. For the same molecule, the Emax [35] was 89 ± 3%.
